“And” between values parts separate entries of the source, which are not always exact repeats. Identical values can stand only once.
Assays:
[1] = Phase 2A study (Magnolia) in women with postpartum depression: ganaxolone plasma concentrations / pharmacokinetics; settings: for Ratio GNX Concentration (ng/mL)/(μg/hr/kg): individual subjects of Cohorts 1-3 (order of Table 1A), listed as GNX
Procedure: Approximately 200 women with PPD 18 to 45 years of age are screened to randomize up to 100 subjects across up to 6 cohorts. Approximately 10-30 subjects are randomized into each cohort. Randomized subjects receive the investigational product (IP), ganaxolone or matching placebo in a 1:1 ratio. In Cohorts 1-5 the IP is administered intravenously over 60 hours. In Cohort 6 the dosing is initiated with a 6-hour intravenous (IV) infusion followed by oral dosing for 28 days plus 3-day taper.
Ganaxolone is infused at a rate of 4 mg/hr (16 ml/h of ganaxolone 0.25 mg/ml solution) for 48 hours and then, to minimize any risks for withdrawal or rebound of anxiety and depression symptoms, at a rate of 2 mg/hr for the next 12 hours. The infusion is stopped at 60 hours. Total of 9 subjects are dosed for this cohort.
Ganaxolone is infused at a rate of 8 mg/hr (16 ml/h of ganaxolone 0.5 mg/ml solution) for 48 hours and then at a rate of 4 mg/hr for the next 12 hours. This dose is approximately double the expected plasma exposure as compared to Cohort 1 at steady state (Cohort 2 expected plasma concentration ˜100-120 ng/mL). The infusion is stopped at 60 hours.
Twelve mg bolus of ganaxolone is initially given over 2 minutes followed by ganaxolone infusion at a rate of 12 mg/hr (24 ml/h of ganaxolone 0.5 mg/ml solution) for 48 hours. The rate is then reduced to 6 mg/hr for the next 12 hours, which is done to minimize any risks for withdrawal or rebound of anxiety and depression symptoms. The infusion is stopped at 60 hours.
In this cohort dosing is initiated with ganaxolone infusion at a rate of 20 mg/hr (40 ml/h of ganaxolone 0.5 mg/ml solution or matching placebo) for 6 hours followed by ganaxolone 900 mg (four 225 mg capsules per dose) or matching placebo capsules given orally at dinner time for 28 days followed by a 3-day taper (three, two, and one 225 mg capsule(s) per day, respectively).
This initial infusion is targeted to provide a fast onset of antidepressant activity by delivery of rapid plasma exposures to ganaxolone. Then, at dinner time of Day 1 the subjects take their first oral dose of ganaxolone 900 mg (four 225 mg capsules) or matching placebo (4 capsules). […] In previous studies, ganaxolone has been given up to a daily dose of 2000 mg, and at single doses of 1000 mg.
Six samples are collected for pharmacokinetic analysis in Cohorts 1-5 and 12 samples in Cohort 6. […] Seven samples are collected during the inpatient phase of Cohort 6 (including 6 samples on Day 1) followed by collection of 5 samples during the outpatient phase during the study visits for a total of 12 samples in Cohort 6.

[2] = Cardiovascular safety pharmacology in dogs, single dose; type: in vivo, dog; settings: dog, in vivo, single dose of up to 15 mg/kg
Procedure: (§1) Safety pharmacology studies were conducted with ganaxolone.

dogs = experiment: as above; type: in vivo, dog; settings: single dose of up to 15 mg/kg
Procedure: as §1

[3] = test system: children and adolescents with fragile X syndrome; settings: in those with higher baseline anxiety; Ligsay et al, 2017; cited from earlier work
[4] = female, human, plasma, intravenous, 260 μg/kg/hr, Mean average GNX Concentration, calculated for dose 260 μg/kg/hr
[5] = female, human, plasma, iv, GNX Concentration, Cohort 1: IV 4 mg/hr for 48 h then 2 mg/hr for 12 h, individual subjects

## CC(=O)[C@H]1CC[C@H]2[C@@H]3CC[C@H]4C[C@](C)(O)CC[C@]4(C)[C@H]3CC[C@]12C [ganaxolone, 3α-hydroxy-3β-methyl-5α-pregnan-20-one]
[1]; [4]
  concentration at 24 h: 276 ng/mL
  concentration at 48 h: 304 ng/mL
[1]; female, human, plasma, iv, 86 ug/kg, AUC12-24, calculated from Table 1C, dose 86 μg/kg/hr (row order of Table 1C)
  AUC: 1040 ng·h/mL
[1]; female, human, plasma, iv, 86 ug/kg, AUC12-48, calculated from Table 1C, dose 86 μg/kg/hr (row order of Table 1C)
  AUC: 3340 ng·h/mL
[1]; female, human, plasma, iv, 86 ug/kg, AUC24-48, calculated from Table 1C, dose 86 μg/kg/hr (row order of Table 1C)
  AUC: 2300 ng·h/mL
[1]; female, human, plasma, iv, 150 ug/kg, AUC12-24, calculated from Table 1C, dose 150 μg/kg/hr (row order of Table 1C)
  AUC: 1810 ng·h/mL
[1]; female, human, plasma, iv, 150 ug/kg, AUC12-48, calculated from Table 1C, dose 150 μg/kg/hr (row order of Table 1C)
  AUC: 5820 ng·h/mL
[1]; female, human, plasma, iv, 150 ug/kg, AUC24-48, calculated from Table 1C, dose 150 μg/kg/hr (row order of Table 1C)
  AUC: 4010 ng·h/mL
[1]; female, human, plasma, iv, 160 ug/kg, AUC12-24, calculated from Table 1C, dose 160 μg/kg/hr (row order of Table 1C)
  AUC: 1930 ng·h/mL
[1]; female, human, plasma, iv, 160 ug/kg, AUC12-48, calculated from Table 1C, dose 160 μg/kg/hr (row order of Table 1C)
  AUC: 6210 ng·h/mL
[1]; female, human, plasma, iv, 160 ug/kg, AUC24-48, calculated from Table 1C, dose 160 μg/kg/hr (row order of Table 1C)
  AUC: 4280 ng·h/mL
[1]; female, human, plasma, iv, 170 ug/kg, AUC12-24, calculated from Table 1C, dose 170 μg/kg/hr (row order of Table 1C)
  AUC: 2050 ng·h/mL
[1]; female, human, plasma, iv, 170 ug/kg, AUC12-48, calculated from Table 1C, dose 170 μg/kg/hr (row order of Table 1C)
  AUC: 6600 ng·h/mL
[1]; female, human, plasma, iv, 170 ug/kg, AUC24-48, calculated from Table 1C, dose 170 μg/kg/hr (row order of Table 1C)
  AUC: 4550 ng·h/mL
[1]; female, human, plasma, iv, 180 ug/kg, AUC12-24, calculated from Table 1C, dose 180 μg/kg/hr (row order of Table 1C)
  AUC: 2170 ng·h/mL
[1]; female, human, plasma, iv, 180 ug/kg, AUC12-48, calculated from Table 1C, dose 180 μg/kg/hr (row order of Table 1C)
  AUC: 6980 ng·h/mL
[1]; female, human, plasma, iv, 180 ug/kg, AUC24-48, calculated from Table 1C, dose 180 μg/kg/hr (row order of Table 1C)
  AUC: 4820 ng·h/mL
[1]; female, human, plasma, iv, 190 ug/kg, AUC12-24, calculated from Table 1C, dose 190 μg/kg/hr (row order of Table 1C)
  AUC: 2290 ng·h/mL
[1]; female, human, plasma, iv, 190 ug/kg, AUC12-48, calculated from Table 1C, dose 190 μg/kg/hr (row order of Table 1C)
  AUC: 7370 ng·h/mL
[1]; female, human, plasma, iv, 190 ug/kg, AUC24-48, calculated from Table 1C, dose 190 μg/kg/hr (row order of Table 1C)
  AUC: 5080 ng·h/mL
[1]; female, human, plasma, iv, 200 ug/kg, AUC12-24, calculated from Table 1C, dose 200 μg/kg/hr (row order of Table 1C)
  AUC: 2410 ng·h/mL
[1]; female, human, plasma, iv, 200 ug/kg, AUC12-48, calculated from Table 1C, dose 200 μg/kg/hr (row order of Table 1C)
  AUC: 7760 ng·h/mL
[1]; female, human, plasma, iv, 200 ug/kg, AUC24-48, calculated from Table 1C, dose 200 μg/kg/hr (row order of Table 1C)
  AUC: 5350 ng·h/mL
[1]; female, human, plasma, iv, 210 ug/kg, AUC12-24, calculated from Table 1C, dose 210 μg/kg/hr (row order of Table 1C)
  AUC: 2530 ng·h/mL
[1]; female, human, plasma, iv, 210 ug/kg, AUC12-48, calculated from Table 1C, dose 210 μg/kg/hr (row order of Table 1C)
  AUC: 8150 ng·h/mL
[1]; female, human, plasma, iv, 210 ug/kg, AUC24-48, calculated from Table 1C, dose 210 μg/kg/hr (row order of Table 1C)
  AUC: 5620 ng·h/mL
[1]; female, human, plasma, iv, 220 ug/kg, AUC12-24, calculated from Table 1C, dose 220 μg/kg/hr (row order of Table 1C)
  AUC: 2650 ng·h/mL
[1]; female, human, plasma, iv, 220 ug/kg, AUC12-48, calculated from Table 1C, dose 220 μg/kg/hr (row order of Table 1C)
  AUC: 8540 ng·h/mL
[1]; female, human, plasma, iv, 220 ug/kg, AUC24-48, calculated from Table 1C, dose 220 μg/kg/hr (row order of Table 1C)
  AUC: 5890 ng·h/mL
[1]; female, human, plasma, iv, 260 ug/kg, AUC12-24, calculated from Table 1C, dose 260 μg/kg/hr (row order of Table 1C)
  AUC: 3130 ng·h/mL
[1]; female, human, plasma, iv, 260 ug/kg, AUC12-48, calculated from Table 1C, dose 260 μg/kg/hr (row order of Table 1C)
  AUC: 10100 ng·h/mL
[1]; female, human, plasma, iv, 260 ug/kg, AUC24-48, calculated from Table 1C, dose 260 μg/kg/hr (row order of Table 1C)
  AUC: 6960 ng·h/mL
[1]; female, human, plasma, iv, GNX Concentration, Cohort 1: IV 4 mg/hr for 48 h then 2 mg/hr for 12 h, individual subjects, time 12 hr
  concentration at 12 h: 58.8 ng/mL
[1]; [5]
  concentration at 24 h: 72.6 ng/mL
  concentration at 48 h: 78.1 ng/mL
[1]; female, human, plasma, iv, GNX Concentration, Cohort 1: IV 4 mg/hr for 48 h then 2 mg/hr for 12 h, individual subjects, time 72 hr
  concentration at 72 h: 10.1 ng/mL
[1]; time 12 hrs
  Ratio GNX Concentration (ng/mL)/(μg/hr/kg): 0.99 (ng/mL)/(μg/hr/kg) and 1.24 (ng/mL)/(μg/hr/kg) and 0.74 (ng/mL)/(μg/hr/kg) and 1.21 (ng/mL)/(μg/hr/kg) (3×) and 0.94 (ng/mL)/(μg/hr/kg) and 0.90 (ng/mL)/(μg/hr/kg) and 0.87 (ng/mL)/(μg/hr/kg) and 0.76 (ng/mL)/(μg/hr/kg) and 1.08 (ng/mL)/(μg/hr/kg) (2×) and 0.53 (ng/mL)/(μg/hr/kg) and 1.14 (ng/mL)/(μg/hr/kg) and 0.83 (ng/mL)/(μg/hr/kg) and 0.89 (ng/mL)/(μg/hr/kg) and 0.97 (ng/mL)/(μg/hr/kg) (3×) and 0.82 (ng/mL)/(μg/hr/kg) and 0.80 (ng/mL)/(μg/hr/kg) (2×) and 1.02 (ng/mL)/(μg/hr/kg) and 0.86 (ng/mL)/(μg/hr/kg) and 0.60 (ng/mL)/(μg/hr/kg) and 1.28 (ng/mL)/(μg/hr/kg)
[1]; time 24 hrs
  Ratio GNX Concentration (ng/mL)/(μg/hr/kg): 1.22 (ng/mL)/(μg/hr/kg) (3×) and 1.45 (ng/mL)/(μg/hr/kg) and 0.96 (ng/mL)/(μg/hr/kg) (2×) and 1.53 (ng/mL)/(μg/hr/kg) and 0.28 (ng/mL)/(μg/hr/kg) and 0.63 (ng/mL)/(μg/hr/kg) and 1.12 (ng/mL)/(μg/hr/kg) (3×) and 1.32 (ng/mL)/(μg/hr/kg) (2×) and 0.86 (ng/mL)/(μg/hr/kg) and 1.36 (ng/mL)/(μg/hr/kg) and 1.03 (ng/mL)/(μg/hr/kg) (2×) and 1.16 (ng/mL)/(μg/hr/kg) and 1.34 (ng/mL)/(μg/hr/kg) and 0.95 (ng/mL)/(μg/hr/kg) and 0.92 (ng/mL)/(μg/hr/kg) and 1.48 (ng/mL)/(μg/hr/kg) and 0.55 (ng/mL)/(μg/hr/kg) and 0.13 (ng/mL)/(μg/hr/kg)
[1]; time 48 hrs
  Ratio GNX Concentration (ng/mL)/(μg/hr/kg): 1.31 (ng/mL)/(μg/hr/kg) and 1.39 (ng/mL)/(μg/hr/kg) and 1.42 (ng/mL)/(μg/hr/kg) and 1.12 (ng/mL)/(μg/hr/kg) and 1.23 (ng/mL)/(μg/hr/kg) (2×) and 1.01 (ng/mL)/(μg/hr/kg) and 0.97 (ng/mL)/(μg/hr/kg) and 1.06 (ng/mL)/(μg/hr/kg) and 0.81 (ng/mL)/(μg/hr/kg) and 1.09 (ng/mL)/(μg/hr/kg) and 0.78 (ng/mL)/(μg/hr/kg) (2×) and 1.02 (ng/mL)/(μg/hr/kg) and 1.76 (ng/mL)/(μg/hr/kg) and 1.17 (ng/mL)/(μg/hr/kg) and 1.47 (ng/mL)/(μg/hr/kg) and 1.20 (ng/mL)/(μg/hr/kg) and 1.60 (ng/mL)/(μg/hr/kg) and 0.55 (ng/mL)/(μg/hr/kg) and 1.56 (ng/mL)/(μg/hr/kg) and 0.80 (ng/mL)/(μg/hr/kg) and 0.84 (ng/mL)/(μg/hr/kg)
[1]; time 72 hrs
  Ratio GNX Concentration (ng/mL)/(μg/hr/kg): 0.17 (ng/mL)/(μg/hr/kg) (2×) and 0.31 (ng/mL)/(μg/hr/kg) and 0.28 (ng/mL)/(μg/hr/kg) and 0.33 (ng/mL)/(μg/hr/kg) (2×) and 0.18 (ng/mL)/(μg/hr/kg) and 0.10 (ng/mL)/(μg/hr/kg) and 0.25 (ng/mL)/(μg/hr/kg) and 0.32 (ng/mL)/(μg/hr/kg) and 0.29 (ng/mL)/(μg/hr/kg) and 0.24 (ng/mL)/(μg/hr/kg) and 0.21 (ng/mL)/(μg/hr/kg) (2×) and 0.36 (ng/mL)/(μg/hr/kg) and 0.16 (ng/mL)/(μg/hr/kg) (2×) and 0.13 (ng/mL)/(μg/hr/kg) (2×) and 0.23 (ng/mL)/(μg/hr/kg) (2×) and 0.34 (ng/mL)/(μg/hr/kg) and 0.35 (ng/mL)/(μg/hr/kg) and 0.38 (ng/mL)/(μg/hr/kg) and 0.19 (ng/mL)/(μg/hr/kg) (2×)
[2]; read-out: AUC(0-24)
  AUC(0-t): 10000 ng·h/mL
[2]; read-out: Maximum concentration [Cmax]
  Cmax: 1000 ng/mL
dogs
  Effect on cardiovascular parameters: no effect on cardiovascular parameters
[3]
  Anxiety, hyperactivity and attention: reduced anxiety and hyperactivity and improved attention
